Laboratory results taken from US10934283B2, “COMT inhibiting methods and compositions” (LIEBER INSTITUTE FOR BRAIN DEVELOPMENT, priority 2015, dated 2021).
Counter-ions that a name gives are not always drawn.

The compounds below were run against T1, catechol-O-methyltransferase (COMT) (Homo sapiens, UniProt P21964) (assay: COMT inhibition assay (HTRF, production of SAH from SAM)). Conditions: table does not say MB-COMT or S-COMT.
T1 construct: M51A variant) was expressed in HEK 293F cells
T1 sequence (P21964 52-271 limits assumed): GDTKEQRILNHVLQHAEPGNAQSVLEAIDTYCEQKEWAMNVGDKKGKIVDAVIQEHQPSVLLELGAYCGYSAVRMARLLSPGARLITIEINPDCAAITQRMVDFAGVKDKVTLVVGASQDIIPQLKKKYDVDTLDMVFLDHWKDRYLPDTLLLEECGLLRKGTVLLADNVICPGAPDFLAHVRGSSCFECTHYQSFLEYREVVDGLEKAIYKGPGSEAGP
Type: biochemical
Method: The ability of compounds to inhibit the activity of catechol-O-methyltransferase (COMT) was determined by a homogenous time-resolved fluorescent (HTRF) assay (Lina et al, 2012; kit from CisBio, Codolet, France). This assay measures the production of S-adenosyl homocysteine (SAH) from the methyl donor S-adenosyl methionine. Recombinant human membrane bound COMT (MB-COMT; M51A variant) was expressed in HEK 293F cells using 293Fectin (Life Technologies, Gent, Belgium) and membranes prepared. The membranes were re-suspended in buffer (20 mM Tris/HCl pH 7; 10 mM glycerol; 2 mM MgCl2; 10 mM NaCl), aliquoted and stored at −80° C. Recombinant human soluble COMT(S-COMT), Val158 variant and a hexa-His tag on the N-terminus, was purified using Ni-NTA chromatography, the His tag removed and stored in buffer as above.
For the human MB-COMT assay, membranes (62 ng/well) were incubated with SAM (20 μM final, CisBio) and dopamine (1.5 μM final; Sigma H8502, Diegem, Belgium) in the presence or absence of varying concentrations (typically 10 concentrations ranging from 10 ? M to 0.1 nM) of compound for 40 min at 37° C. in 384-well microtiter plates (10 ? l per well final volume). The reaction was terminated by the addition of acylation buffer and the amount of SAH produced determined according to manufacturer's instructions. Specific inhibition as that inhibited by a high concentration of tolcapone and all experiments were validated using a control curve to tolcapone.
The human S-COMT assay was performed as above except that 0.15 ng enzyme/well was incubated with SAM ([…]) and dopamine (100 μM final) for 15 min at 37° C. and SAH production determined.
HTRF readings were performed using a Perkin Elmer Envision and results expressed as concentration of SAH produced using a standard curve. Results were analyzed using non-linear regression to the 4-parameter logistic equation and pIC50 (−log 10 concentration of drug which inhibits enzyme activity/SAH production by 50%) determined.

Row | Structure (SMILES) | Activity range (pIC50)
1 | O=c1cc2n(cc1O)CCN(Cc1cccc(OCc3ccccc3)c1)C2 [Example 53, 2-[3-(benzyloxy)benzyl]-7-hydroxy-1,2,3,4-tetrahydro-8H-pyrido[1,2-a]pyrazin-8-one] | +++ (three plus signs (+++) is associated with a pIC50 of above about 7)
2 | O=c1cc2n(cc1O)CCN(Cc1ccc3nsnc3c1)C2 [Example 54, 2-(2,1,3-benzothiadiazol-5-ylmethyl)-7-hydroxy-1,2,3,4-tetrahydro-8H-pyrido[1,2-a]pyrazin-8-one] | ++ (two plus signs (++) is associated with a pIC50 of from about 6 to 7)
3 | O=c1cc2n(cc1O)CCN(Cc1ccccc1OCc1ccccc1)C2 [Example 55, 2-[2-(benzyloxy)benzyl]-7-hydroxy-1,2,3,4-tetrahydro-8H-pyrido[1,2-a]pyrazin-8-one] | ++ (two plus signs (++) is associated with a pIC50 of from about 6 to 7)
4 | Cc1ccc(-c2nc3sccn3c2CN2CCn3cc(O)c(=O)cc3C2)cc1 [Example 56, 7-hydroxy-2-{[6-(4-methylphenyl)imidazo[2,1-b][1,3]thiazol-5-yl]methyl}-1,2,3,4-tetrahydro-8H-pyrido[1,2-a]pyrazin-8-one] | ++ (two plus signs (++) is associated with a pIC50 of from about 6 to 7)
5 | O=c1cc2n(cc1O)CCN(Cc1ccc(Cl)cc1Cl)C2 [Example 57, 7-hydroxy-2-[(2,4-dichlorophenyl)methyl]-1,2,3,4-tetrahydro-8H-pyrido[1,2-a]pyrazin-8-one] | +++ (three plus signs (+++) is associated with a pIC50 of above about 7)
6 | O=c1cc2n(cc1O)CCN(Cc1ccccc1Cl)C2 [Example 58, 2-[(2-chlorophenyl)methyl]-7-hydroxy-3,4-dihydro-1H-pyrido[1,2-a]pyrazin-8-one] | +++ (three plus signs (+++) is associated with a pIC50 of above about 7)
7 | O=c1cc2n(cc1O)CCN(Cc1c(F)cccc1Cl)C2 [Example 59, 2-[(2-chloro-6-fluoro-phenyl)methyl]-7-hydroxy-3,4-dihydro-1H-pyrido[1,2-a]pyrazin-8-one] | +++ (three plus signs (+++) is associated with a pIC50 of above about 7)
8 | O=c1cc2n(cc1O)CCN(Cc1c(Cl)cccc1Cl)C2 [Example 60, 2-[(2,6-dichlorophenyl)methyl]-7-hydroxy-3,4-dihydro-1H-pyrido[1,2-a]pyrazin-8-one] | +++ (three plus signs (+++) is associated with a pIC50 of above about 7)
9 | O=c1cc2n(cc1O)CCN(Cc1ccc(F)cc1Cl)C2 [Example 61] | +++ (three plus signs (+++) is associated with a pIC50 of above about 7)
10 | O=c1cc2n(cc1O)CCN(Cc1c(F)cccc1F)C2 [Example 62, 2-[(2,6-difluorophenyl)methyl]-7-hydroxy-3,4-dihydro-1H-pyrido[1,2-a]pyrazin-8-one] | +++ (three plus signs (+++) is associated with a pIC50 of above about 7)
11 | O=c1cc2n(cc1O)CCN(Cc1ccc(Br)cc1Cl)C2 [Example 63, 2-[(4-bromo-2-chloro-phenyl)methyl]-7-hydroxy-3,4-dihydro-1H-pyrido[1,2-a]pyrazin-8-one hydrochloride] | +++ (three plus signs (+++) is associated with a pIC50 of above about 7)
12 | O=c1cc2n(cc1O)CCN(Cc1ccc(C3CC3)cc1Cl)C2 [Example 64, 2-[(2-chloro-4-cyclopropyl-phenyl)methyl]-7-hydroxy-3,4-dihydro-1H-pyrido[1,2-a]pyrazin-8-one hydrochloride] | +++ (three plus signs (+++) is associated with a pIC50 of above about 7)
13 | CC1(C)Cn2cc(O)c(=O)cc2CN1Cc1ccccc1Cl [Example 65, 2-[(2-chlorophenyl)methyl]-7-hydroxy-3,3-dimethyl-1,4-dihydropyrido[1,2-a]pyrazin-8-one] | ++ (two plus signs (++) is associated with a pIC50 of from about 6 to 7)
